Measurements reported in patent US12194051B2, “5-azaindazole derivatives as adenosine receptor antagonists” (MERCK PATENT GMBH, priority 2018, dated 2025).

Tests used:
Type in all cases: cell-based
Human T cell = Human T cell IL-2; settings: human T cells
human A2A receptors = molecular target: T1, human A2A receptors (Homo sapiens, UniProt P29274); experiment: Inhibition of human A2A receptor in recombinant HEK293 cells, cAMP quantification (HTRF); settings: read-out: A2A (Category)
T1 construct: expressed in transfected cells; host or cells: HEK293
T1 sequence (P29274 whole entry): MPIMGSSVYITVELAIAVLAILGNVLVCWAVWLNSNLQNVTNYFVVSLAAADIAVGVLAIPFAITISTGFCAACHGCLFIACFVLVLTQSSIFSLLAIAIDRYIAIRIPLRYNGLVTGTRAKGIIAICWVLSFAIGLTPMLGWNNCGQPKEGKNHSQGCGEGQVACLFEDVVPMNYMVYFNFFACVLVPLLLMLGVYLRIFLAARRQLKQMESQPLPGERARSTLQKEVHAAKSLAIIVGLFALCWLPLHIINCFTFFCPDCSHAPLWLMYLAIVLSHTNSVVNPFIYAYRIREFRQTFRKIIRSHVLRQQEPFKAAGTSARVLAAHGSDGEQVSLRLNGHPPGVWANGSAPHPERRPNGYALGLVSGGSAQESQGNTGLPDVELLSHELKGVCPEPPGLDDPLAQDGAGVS
Procedure, shortened: (§1)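 cAMP accumulation, determined by HTRF after a 15 min incubation, served as the functional measure of receptor activity.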

human A2B receptors = molecular target: T2, human A2B receptors (Homo sapiens, UniProt P29275); experiment: Inhibition of human A2B receptor in recombinant HEK293 cells, cAMP quantification (HTRF); settings: read-out: A2B (Category)
T2 construct: expressed in transfected cells; host or cells: HEK293
T2 sequence (P29275 1-332): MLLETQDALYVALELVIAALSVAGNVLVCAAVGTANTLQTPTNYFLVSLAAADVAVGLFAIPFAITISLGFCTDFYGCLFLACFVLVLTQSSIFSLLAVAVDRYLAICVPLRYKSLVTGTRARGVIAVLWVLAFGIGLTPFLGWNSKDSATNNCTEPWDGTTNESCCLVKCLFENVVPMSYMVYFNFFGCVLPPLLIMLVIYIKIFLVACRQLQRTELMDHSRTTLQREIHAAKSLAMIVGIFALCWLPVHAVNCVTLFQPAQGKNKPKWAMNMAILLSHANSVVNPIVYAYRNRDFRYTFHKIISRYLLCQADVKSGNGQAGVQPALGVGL
Procedure, shortened: as §1

[1] = molecular target: T3, endogenous human A2A receptor (Homo sapiens, UniProt P29274); experiment: Human T cell assay, endogenous A2A receptor, cAMP quantification
T3 construct: The endogenous functional activity of the Gs-coupled human A2A receptor was measured in T cells; endogenous in cells; host or cells: human pan T cells isolated from PBMC of fresh whole blood
T3 sequence (P29274 whole entry): as the sequence (P29274 whole entry) above
Description: The endogenous functional activity of the Gs-coupled human A2A receptor was measured in T cells, where this receptor is highly expressed. Determination of receptor activity was done by quantification of cAMP, which is a second messenger for adenosine receptors.
In short, human pan T cells were isolated from human PBMC (MACS Pan T Cell Isolation Kit, Miltenyi Biotec) that have been derived from fresh whole blood. The T cells were seeded in 384-well microtiter plates and treated with test compounds. […] Finally, HTRF reagents (cAMP Femto Kit, CisBio) were added to the wells, and after 1 h cellular cAMP levels were determined using the ENVISION (Perkin Elmer) plate reader.
The obtained raw data were normalized against the inhibitor control and the neutral control (DMSO) and the normalized data were fitted using Genedata Screener software.

mouse Pan T cells = experiment: Mouse T cell IL-2 rescue from NECA inhibition (ELISA); settings: 24 h
Excerpt: Adenosine (Ado) in tumor microenvironment can inhibit T cell activity by signaling through A2A receptors and suppress cytokine secretion by T cells. […] Potential A2A antagonists or A2A/A2B dual antagonists can rescue T cells from this inhibition. Herein, we describe the in vitro system we established using Pan T cells from mouse spleens to screen potential A2A antagonists or A2A/A2B dual antagonists for their activity. The method described involves the use of CD3/CD28 pre-coated beads to stimulate Pan T cells purified from mouse splenocytes, combined with the addition of A2A agonist along with potential A2A or A2A/A2B dual antagonists to evaluate potentiation of T cell cytokine production.
Briefly, mouse Pan T cells are purified from spleens of BALB/c mice using Pan T cell isolation kit Mouse II (MACS Miltenyi biotech Cat # Order no. 130-095-130) according to manufacturer's protocol. […] After 24 h incubation IL-2 levels in the supernatants are measured by ELISAs according to manufacturer's protocol (R&D systems Cat # DY402 (IL-2)). Once the concentrations are calculated, the difference of cytokine concentration of DMSO control and agonist alone control is calculated and the percentage of rescue by each concentration of antagonist is calculated by using Microsoft Excel. […]

Row | SMILES | IC50 (Human T cell) [nM] | IC50 (human A2A receptors) [nM] | IC50 (human A2B receptors) [nM] | IC50 [1] [nM] | IC50 (mouse Pan T cells) [nM]
1 | O=C(c1cc2c(cn1)c(Nc1ccc(F)cc1)nn2CC(F)(F)F)N1CCCOCC1 [Compound 10, [3-(4-fluoroanilino)-1-(2,2,2-trifluoroethyl)pyrazolo[4,3-c]pyridin-6-yl]-(1,4-oxazepan-4-yl)methanone] | < 100 | < 100 | < 100 | < 100 | < 1000
2 | O=C(c1cc2c(cn1)c(Nc1cc(F)ccn1)nn2CC(F)(F)F)N1[C@@H]2CC[C@H]1C[C@@H](O)C2 [Compound 120, [3-[(4-fluoro-2-pyridyl)amino]-1-(2,2,2-trifluoroethyl)pyrazolo[4,3-c]pyridin-6-yl]-(3-endo-hydroxy-8-azabicyclo[3.2.1]octan-8-yl)methanone] | – | < 100 | < 100 | – | –
3 | [2H]C1([2H])COCCN(C(=O)c2cc3c(cn2)c(Nc2cnccn2)nn3CC(F)(F)F)C1 [Compound 121] | – | < 100 | < 1000 | – | –
4 | O=C(c1cc2c(cn1)c(Nc1cnccn1)nn2CC(F)(F)F)N1CCOC[C@@H](F)C1 [Compound 122, [(6S)-6-fluoro-1,4-oxazepan-4-yl]-[3-(pyrazin-2ylamino)-1-(2,2,2-trifluoro-ethyl)-1H-pyrazolo[4,3-c]pyridin-6-yl]-methanone] | – | < 100 | < 100 | – | –
5 | CC1(O)CCN(C(=O)c2cc3c(cn2)c(Nc2cnccn2)nn3CC(F)(F)F)CC1 [Compound 123, [3-(pyrazin-2ylamino)-1-(2,2,2-trifluoro-ethyl)-1H-pyrazolo[4,3-c]pyridin-6-yl]-(4-hydroxy-4-methyl-piperidin-1-yl)-methanone] | – | < 1000 | < 1000 | – | –
6 | O=C(c1cc2c(cn1)c(Nc1cnccn1)nn2CC(F)(F)F)N1CCC(F)CC1 [Compound 124, [3-(pyrazin-2ylamino)-1-(2,2,2-trifluoro-ethyl)-1H-pyrazolo[4,3-c]pyridin-6-yl]-(4-fluoro-piperidin-1-yl)-methanone] | – | < 100 | < 1000 | – | –
7 | CC(C)(O)C[C@H]1CCCN1C(=O)c1cc2c(cn1)c(Nc1ccc(F)cn1)nn2CC(F)(F)F [Compound 125, [3-[(5-fluoro-2-pyridyl)amino]-1-(2,2,2-trifluoroethyl)pyrazolo[4,3-c]pyridin-6-yl]-[(2R)-2-(2-hydroxy-2-methyl-propyl)pyrrolidin-1-yl]methanone] | – | < 100 | < 1000 | – | –
8 | O=C(c1cc2c(cn1)c(Nc1ccccn1)nn2CC(F)(F)F)N1[C@@H]2CC[C@H]1C[C@@H](O)C2 [Compound 127, (3-endo-hydroxy-8-azabicyclo[3.2.1]octan-8-yl)-[3-(2-pyridylamino)-1-(2,2,2-trifluoroethyl)pyrazolo[4,3-c]pyridin-6-yl]methanone] | – | < 100 | < 100 | – | –
